Reference: patent publication US9000174B2, “4-phenylsulfonamidopiperidines as calcium channel blockers” (Purdue Pharma L.P., priority 2004, dated 2015)
pIC50: −log10 of the molar value. Counter-ions that a name gives are not always drawn.

Legend:
[1] = target: T1, N-type calcium channel (NTCC) (Homo sapiens, UniProt Q00975); test: FLIPR calcium mobilization (and/or electrophysiological) assay for N-type calcium channel; assay type: cell-based; conditions: calcium mobilization and/or electrophysiological in vitro assay; differentiated IMR32 cells, 90 mM KCl, 5 μM nitrendipine
T1 construct: endogenous in cells; host or cells: differentiated IMR32 cells (ATCC)
Method: Unless noted otherwise, cell culture reagents were purchased from Life Technologies of Rockville, Md. IMR32 cells (American Type Culture Collection, ATCC, Manassas, Va.) were routinely cultured in growth medium consisting of minimum essential medium containing 10% fetal bovine serum (FBS, Hyclone, Logan, Utah), 100 U/mL penicillin, 100 μg/mL streptomycin, 2 mM L-glutamine, 1 mM sodium pyruvate, and 1×MEM non-essential amino acids. 80-90% confluent flasks of cells were differentiated using the following differentiation medium: Growth medium plus 1 mM dibutyryl cyclic AMP (Sigma, St. Louis, Mo.), and 2.5 μM bromodeoxyuridine (Sigma). Cells were differentiated for 8 days by replacing differentiation medium every 2-3 days.
One day prior to performing this assay, differentiated IMR32 cells were treated with 1× CellStripper, and seeded on poly-D-lysine-coated 96-well clear-bottom black plates (Becton Dickinson, Franklin Lakes, N.J.) at 200,000 cells/well. On the day of the assay, the cell plates were washed with IMR32 buffer (127 mM NaCl, 1 mM KCl, 2 mM MgCl2, 700 μM NaH2PO4, 5 mM CaCl2, 5 mM NaHCO3, 8 mM HEPES, 10 mM glucose, pH 7.4), then pre-stimulated with KCl and loaded as follows: 0.05 mL of IMR32 buffer, 0.05 mL of each compound tested diluted in IMR32 buffer containing 20 μM nitrendipine (Sigma), and 0.1 mL KCl dissolved in IMR32 buffer, plus Fluo-4 were added (3 μM final concentration, Molecular Probes, Eugene, Oreg.). Final test compound concentrations ranged from about 846 pM to about 17 μM, final nitrendipine concentration was 5 μM, and final KCl concentration was 90 mM. After 1 hour, the cells were washed twice with 0.05 mL of each compound tested in nitrendipine-containing IMR32 buffer (no KCl or Fluo-4), and then replaced with 0.1 mL of each compound tested in nitrendipine-containing IMR32 buffer. Plates were then transferred to a Fluorimetric Imaging Plate Reader (FLIPR^96, Molecular Devices, Inc., Sunnyvale, Calif.) for assay. The FLIPR measured basal Fluo-4 fluorescence for 315 seconds (i.e., 5 minutes and 15 seconds), then added 0.1 mL KCl agonist dissolved in IMR32 buffer and measured fluorescence for another 45 seconds. Final test compound concentrations on the cells after FLIPR read ranged from about 846 pM to about 17 μM, final nitrendipine concentration was 5 μM, and final KCl concentration was 90 mM. Data were collected over the entire time course and analyzed using Excel, Graph Pad Prism (version 3.02, Graph Pad, San Diego, Calif.), or Activity Base (version 5.1, IDBS, Parsippany, N.J.) software.
N-type calcium channel expressing HEK-293 cells were created in two stages. Stage 1 was created as follows. The rat α1b, and β3 cDNA expression constructs (2.5 μg each) were co-transfected into human embryonic kidney (HEK-293) cells by Lipofectamine Plus reagent (Invitrogen), as per manufacturer's instructions. 24 hours later, cells were split in limiting dilution into multiple 96-well plates in selection media containing 20 μg/mL blasticidin and 500 μg/mL geneticin, and incubated for 3 weeks at 37° C., 5% CO2, 95% humidity. Plates containing ≦1 clone per well were cultured until wells positive for single clones were confluent. Individual clones were then arrayed into columns of a destination 96-well plate, and partly split into 6-well plates for culture maintenance. Array plates were washed once with IMR32 buffer and cells loaded for 1 hour with 0.1 mL of IMR32 buffer containing Fluo-4 (3 μM final concentration, Molecular Probes). Then they were washed twice with 0.1 mL of IMR32 buffer, and replaced with 0.1 mL IMR32 buffer. Plates were then transferred to a FLIPR^96 for assay. The FLIPR measured basal Fluo-4 fluorescence for 315 seconds, then added 0.1 mL KCl agonist dissolved in IMR32 buffer and measured fluorescence for another 45 seconds. Final KCl concentration was 90 mM. Data were collected over the entire time course and analyzed using Excel, Graph Pad Prism, or Activity Base software. […]

[2] = target: T2, L-type calcium channel (LTCC) (Rattus norvegicus, UniProt P22002); test: FLIPR calcium mobilization (and/or electrophysiological) assay for L-type calcium channel; assay type: cell-based; conditions: calcium mobilization and/or electrophysiological in vitro assay; differentiated A7r5 cells, 90 mM KCl
T2 construct: differentiated A7r5 cells were trypsinized, then seeded on tissue culture treated 96-well clear-bottom black plates; endogenous in cells; host or cells: differentiated A7r5 cells (ATCC)
Method: A7r5 (ATCC) cells were maintained and routinely cultured in A7r5 growth medium consisting of Dulbecco's Modified Eagles Medium containing 10% FBS, 100 U/mL penicillin, 100 μg/mL streptomycin, 4 mM L-glutamine, and 0.15% sodium bicarbonate. 80-90% confluent flasks of cells were differentiated using the following differentiation medium: A7r5 Growth Medium plus 1 mM dibutyryl cyclic AMP (Sigma). Cells were differentiated for 8 days by replacing differentiation medium every 2-3 days.
One day prior to performing this assay, differentiated A7r5 cells were trypsinized, then seeded on tissue culture treated 96-well clear-bottom black plates (Becton Dickinson, Franklin Lakes, N.J.) at a dilution of 1:1 from a confluent T150 cm^2 flask. On the day of the assay, the plates were washed with A7r5 wash buffer (127 mM NaCl, 2 mM MgCl2, 700 μM NaH2PO4, 5 mM CaCl2, 5 mM NaHCO3, 8 mM HEPES, 10 mM glucose, pH 7.4), then loaded with 0.1 mL of A7r5 wash buffer containing Fluo-4 (3 μM final concentration, Molecular Probes, Eugene, Oreg.). After 1 hour, the cells were washed with 0.1 mL A7r5 wash buffer and resuspended in 0.05 mL A7r5 assay buffer that was composed of A7r5 wash buffer plus 50 μM valinomycin (Sigma). Plates were then transferred to a FLIPR^96 for assay. The FLIPR measured basal Fluo-4 fluorescence for 15 seconds, then added 0.05 mL of each compound tested diluted in A7r5 assay buffer at final concentrations ranging from about 846 pM to about 17 μM. Fluo-4 fluorescence was then measured for 5 minutes. 0.1 mL KCl agonist dissolved in A7r5 assay buffer was then added to the cells to produce a final concentration of 90 mM KCl, and fluorescence was measured for another 45 seconds. Data were collected over the entire time course and analyzed using Excel, Graph Pad Prism, or Activity Base software.

T2 sequence (P22002 whole entry): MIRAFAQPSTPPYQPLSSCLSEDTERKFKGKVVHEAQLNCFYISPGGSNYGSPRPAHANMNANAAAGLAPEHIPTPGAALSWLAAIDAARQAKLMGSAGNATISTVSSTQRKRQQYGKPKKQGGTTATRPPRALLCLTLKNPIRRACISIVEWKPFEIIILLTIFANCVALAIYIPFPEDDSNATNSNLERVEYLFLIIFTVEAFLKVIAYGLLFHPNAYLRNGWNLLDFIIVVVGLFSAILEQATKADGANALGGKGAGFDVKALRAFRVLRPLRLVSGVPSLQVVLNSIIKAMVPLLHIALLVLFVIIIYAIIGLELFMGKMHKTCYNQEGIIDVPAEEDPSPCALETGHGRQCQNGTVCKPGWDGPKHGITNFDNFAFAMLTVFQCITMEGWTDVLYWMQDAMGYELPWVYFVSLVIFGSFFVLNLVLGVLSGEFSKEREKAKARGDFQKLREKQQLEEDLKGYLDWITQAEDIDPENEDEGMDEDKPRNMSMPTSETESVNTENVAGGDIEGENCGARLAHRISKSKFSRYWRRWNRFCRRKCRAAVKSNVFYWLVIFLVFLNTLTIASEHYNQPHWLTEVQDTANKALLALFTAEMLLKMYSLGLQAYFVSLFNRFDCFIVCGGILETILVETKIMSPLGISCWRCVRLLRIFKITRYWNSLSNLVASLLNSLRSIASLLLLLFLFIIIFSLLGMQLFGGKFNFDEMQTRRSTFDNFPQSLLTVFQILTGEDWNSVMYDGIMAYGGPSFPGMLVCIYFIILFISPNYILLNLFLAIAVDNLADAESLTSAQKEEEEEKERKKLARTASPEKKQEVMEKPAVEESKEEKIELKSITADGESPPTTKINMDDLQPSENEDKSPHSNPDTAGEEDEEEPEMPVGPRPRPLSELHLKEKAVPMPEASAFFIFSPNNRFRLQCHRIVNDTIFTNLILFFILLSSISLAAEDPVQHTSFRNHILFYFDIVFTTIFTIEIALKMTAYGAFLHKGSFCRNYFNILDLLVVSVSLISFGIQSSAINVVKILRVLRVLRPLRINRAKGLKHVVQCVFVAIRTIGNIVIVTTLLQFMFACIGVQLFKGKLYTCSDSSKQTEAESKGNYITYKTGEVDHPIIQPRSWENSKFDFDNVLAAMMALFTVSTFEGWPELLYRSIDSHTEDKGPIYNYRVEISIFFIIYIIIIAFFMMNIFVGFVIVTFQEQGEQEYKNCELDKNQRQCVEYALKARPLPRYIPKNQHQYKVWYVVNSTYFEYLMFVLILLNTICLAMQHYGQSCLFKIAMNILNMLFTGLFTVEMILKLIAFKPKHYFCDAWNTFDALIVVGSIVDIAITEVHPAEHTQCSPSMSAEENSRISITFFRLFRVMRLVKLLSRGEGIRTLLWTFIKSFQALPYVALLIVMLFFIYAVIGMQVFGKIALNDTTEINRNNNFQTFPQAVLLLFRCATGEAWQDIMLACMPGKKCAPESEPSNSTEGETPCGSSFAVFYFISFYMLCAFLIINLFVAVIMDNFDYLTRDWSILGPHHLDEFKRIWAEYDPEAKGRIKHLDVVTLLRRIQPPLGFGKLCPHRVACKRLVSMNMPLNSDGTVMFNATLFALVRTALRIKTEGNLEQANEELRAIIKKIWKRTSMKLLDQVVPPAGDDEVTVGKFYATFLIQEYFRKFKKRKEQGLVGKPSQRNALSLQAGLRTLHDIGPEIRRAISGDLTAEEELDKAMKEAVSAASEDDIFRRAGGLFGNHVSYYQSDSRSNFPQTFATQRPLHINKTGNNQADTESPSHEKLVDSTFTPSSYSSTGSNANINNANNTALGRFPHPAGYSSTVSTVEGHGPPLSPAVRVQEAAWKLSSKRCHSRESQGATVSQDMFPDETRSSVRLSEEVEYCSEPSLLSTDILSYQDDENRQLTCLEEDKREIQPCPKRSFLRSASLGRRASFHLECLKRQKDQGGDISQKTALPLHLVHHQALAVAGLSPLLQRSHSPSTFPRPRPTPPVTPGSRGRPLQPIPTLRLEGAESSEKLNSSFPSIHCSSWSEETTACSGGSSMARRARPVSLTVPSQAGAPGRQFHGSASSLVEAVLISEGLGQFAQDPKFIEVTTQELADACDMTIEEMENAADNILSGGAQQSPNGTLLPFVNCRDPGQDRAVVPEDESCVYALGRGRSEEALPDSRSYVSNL
T2 sequence (P54290 25-944 partner limits assumed): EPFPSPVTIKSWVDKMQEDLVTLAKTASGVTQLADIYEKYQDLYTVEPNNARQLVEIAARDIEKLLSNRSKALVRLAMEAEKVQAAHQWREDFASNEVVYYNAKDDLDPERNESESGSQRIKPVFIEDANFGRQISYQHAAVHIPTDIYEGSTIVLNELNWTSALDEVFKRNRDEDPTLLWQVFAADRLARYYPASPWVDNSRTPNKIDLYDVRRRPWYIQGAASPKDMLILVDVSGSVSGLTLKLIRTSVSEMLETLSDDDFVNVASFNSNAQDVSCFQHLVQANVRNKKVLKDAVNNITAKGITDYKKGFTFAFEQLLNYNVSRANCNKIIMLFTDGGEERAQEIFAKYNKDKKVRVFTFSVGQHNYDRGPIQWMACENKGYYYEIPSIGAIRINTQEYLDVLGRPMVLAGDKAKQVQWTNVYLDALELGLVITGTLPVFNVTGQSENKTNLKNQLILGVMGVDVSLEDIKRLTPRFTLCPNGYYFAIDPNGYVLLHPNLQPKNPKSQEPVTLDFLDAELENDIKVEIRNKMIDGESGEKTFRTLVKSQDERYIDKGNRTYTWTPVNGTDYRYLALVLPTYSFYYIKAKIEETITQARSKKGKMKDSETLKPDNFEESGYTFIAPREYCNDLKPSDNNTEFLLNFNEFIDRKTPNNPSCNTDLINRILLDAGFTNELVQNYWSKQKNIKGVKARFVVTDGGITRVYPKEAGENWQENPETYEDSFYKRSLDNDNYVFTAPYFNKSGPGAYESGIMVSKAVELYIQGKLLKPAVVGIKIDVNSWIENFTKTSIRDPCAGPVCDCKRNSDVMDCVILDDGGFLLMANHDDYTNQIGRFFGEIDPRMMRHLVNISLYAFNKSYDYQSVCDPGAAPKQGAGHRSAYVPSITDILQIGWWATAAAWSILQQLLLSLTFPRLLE
T2 sequence (P54290 945-1091 partner limits assumed): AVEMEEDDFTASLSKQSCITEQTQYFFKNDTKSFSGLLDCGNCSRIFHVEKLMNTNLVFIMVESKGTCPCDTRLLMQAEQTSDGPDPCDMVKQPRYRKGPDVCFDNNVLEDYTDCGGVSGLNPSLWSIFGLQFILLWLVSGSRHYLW
T2 sequence (P54287 whole entry partner): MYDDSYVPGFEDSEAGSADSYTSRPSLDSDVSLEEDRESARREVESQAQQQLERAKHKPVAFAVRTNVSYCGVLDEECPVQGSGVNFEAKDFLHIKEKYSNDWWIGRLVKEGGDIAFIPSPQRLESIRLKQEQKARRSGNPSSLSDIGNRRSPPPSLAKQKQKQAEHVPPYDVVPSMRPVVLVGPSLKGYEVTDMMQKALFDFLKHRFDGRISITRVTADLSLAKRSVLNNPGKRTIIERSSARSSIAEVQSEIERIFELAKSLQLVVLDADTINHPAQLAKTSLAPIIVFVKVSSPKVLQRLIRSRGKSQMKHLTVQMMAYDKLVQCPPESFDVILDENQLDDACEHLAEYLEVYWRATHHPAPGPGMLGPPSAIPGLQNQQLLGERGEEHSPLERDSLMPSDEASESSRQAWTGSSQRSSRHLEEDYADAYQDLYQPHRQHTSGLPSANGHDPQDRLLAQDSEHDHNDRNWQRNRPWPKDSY

| Compound | pIC50 [1] | pIC50 [2] |
| --- | --- | --- |
| CN[C@@H](CC(C)C)C(=O)N1CCC(N(C(C)C)S(=O)(=O)c2cccc(C(F)(F)F)c2)CC1 [(2S) N-Isopropyl-N-[1-(4-methyl-2-methylaminopentanoyl)-piperidin-4-yl]-3-trifluoromethylbenzenesulfonamide fumarate] | 6.06 | < 4.70 |
| CN[C@@H](CC(C)C)C(=O)N1CCC(N(C)S(=O)(=O)c2cccc(C(F)(F)F)c2)CC1 [(2S) N-Methyl-N-[1-(4-methyl-2-methylaminopentanoyl)-piperidin-4-yl]-3-trifluoromethylbenzenesulfonamide fumarate] | 6.41 | 5.29 |
| CN[C@@H](CC(C)C)C(=O)N1CCC(N(C2CC2)S(=O)(=O)c2cccc(C(F)(F)F)c2)CC1 [(2S) N-cyclopropyl-N-[1-(4-methyl-2-methylamino-pentanoyl)piperidin-4-yl]-3-trifluoromethylbenzenesulfonamide] | 6.44 | 5.00 |
| CN[C@@H](CC(C)C)C(=O)N1CCC(N(CC(C)C)S(=O)(=O)c2cccc(C(F)(F)F)c2)CC1 [(2S) N-i-butyl-N-[1-(4-methyl-2-methylaminopentanoyl)piperidin-4-yl]-3-trifluoromethylbenzenesulfonamide] | 6.02 | 5.04 |
| CCCC(CC(=O)N1CCC(N(C2CC2)S(=O)(=O)c2cccc(C(F)(F)F)c2)CC1)N1CCSCC1 (centres unmarked) [N-Cyclopropyl-N-[1-(3-thiomorpholin-4-yl-hexanoyl)piperidin-4-yl]-3-trifluoromethylbenzenesulfonamide] | 6.55 | 4.70 to 5.00 |
| CCCc1ccc(S(=O)(=O)N2CCC(N(C3CC3)S(=O)(=O)c3cccc(C(F)(F)F)c3)CC2)cc1 [N-Cyclopropyl-N-[1-(4-propylphenylsulfonyl)piperidin-4-yl]-3-trifluoromethylbenzenesulfonamide] | 6.36 | 6.03 |
| O=S(=O)(c1cccc(C(F)(F)F)c1)N(C1CC1)C1CCN(CCOC(c2ccc(F)cc2)c2ccc(F)cc2)CC1 [N-Cyclopropyl-N-{1-[2-bis(4-fluorophenyl)methoxyethyl]piperidin-4-yl}-3-trifluoromethylbenzenesulfonamide] | 6.11 | 5.65 |
| COc1ccc(C(=O)N2CCC(N(C3CC3)S(=O)(=O)c3cccc(C(F)(F)F)c3)CC2)cc1C(F)(F)F [N-Cyclopropyl-N-{1-[(3-trifluoromethyl-4-methoxy)benzoyl]piperidin-4-yl}-3-trifluoromethylbenzenesulfonamide] | 6.52 | 5.34 |

Continued, values first:

| pIC50 [1] | pIC50 [2] | Compound |
| --- | --- | --- |
| 5.37 | 4.70 to 5.00 | CC(C)C[C@H](N)C(=O)N1CCC(N(C2CC2)S(=O)(=O)c2ccccc2)CC1 [(2S) N-[1-(2-amino-4-methylpentanoyl)piperidin-4-yl]-N-cyclopropyl-benzenesulfonamide] |
| 6.41 | 4.70 to 5.00 | CNC(Cc1ccccc1C)C(=O)N1CCC(N(C2CC2)S(=O)(=O)c2cccc(C(F)(F)F)c2)CC1 (centres unmarked) [N-Cyclopropyl-N-[1-(2-methylamino-3-o-tolylpropionyl)piperidin-4-yl]-3-trifluoromethylbenzenesulfonamide] |
| 6.96 | 5.42 | O=S(=O)(c1cccc(C(F)(F)F)c1)N(C1CC1)C1CCN(CCCC(c2ccc(F)cc2)c2ccc(F)cc2)CC1 [N-Cyclopropyl-N-{1-[4,4-bis(4-fluorophenyl)butyl]piperidin-4-yl}-3-trifluoromethylbenzenesulfonamide] |
| 6.07 | 5.77 | O=S(=O)(c1cccc(C(F)(F)F)c1)N(C1CC1)C1CCN(Cc2ccnc3ccccc23)CC1 [N-cyclopropyl-N-[1-(4-quinolinylmethyl)piperidin-4-yl]-3-trifluoromethylbenzenesulfonamide] |
| 5.91 | 5.59 | O=C(CC=C(c1ccc(F)cc1)c1ccc(F)cc1)N1CCC(N(C2CC2)S(=O)(=O)c2ccccc2)CC1 [N-cyclopropyl-N-{1-[4,4-bis(4-fluorophenyl)but-3-enoyl]piperidin-4-yl}benzenesulfonamide] |
